One series deals with MDA-MB-435 cells. Put plainly: MTT assay, continuous drug exposure for 48 hours (Table 3). The class given is cell-based, human. (Tetrazolium dyes change colour on reduction, which living cells bring about.)
The next series concerns the target human CYP3A4 (Homo sapiens, UniProt P08684). Put plainly: Inhibition of human cDNA-expressed CYP3A4 (BFC metabolism). The series is classed as in vitro ADME. Conditions: BFC substrate, 37° C. As to the method: The metabolism of fluorescent substrates by human cDNA-expressed CYP3A4 was assessed by incubation in 96 well plate at 37° C. Metabolism of 7-benzyloxy-4-trifluoromethylcoumarin (BFC) was assayed by measuring the production of the corresponding 7-hydroxy-4-trifluoro-methylcoumarin.
The investigation of cytochrome P450 enzyme inhibition by potential drug candidates can aid in predicting drug-drug interactions and/or unfavorable PK profiles produced upon dosing.

A further series has as its system CEM or HEY cells. The series can be described thus: Cytotoxicity of salicylhydrazides (Table 5). The class given is cell-based. Particulars: Homo sapiens. From the text:
Human prostate cancer cells (PC3, p53 null, AR−; DU145, p53 mutant, AR−; and LNCaP, p53 wild-type, AR+) and breast cancer cells (MCF-7, overexpressed wild-type p53, ER+; MDA-MB-468, p53 mutant, […]; and MDA-MB-435, p53 mutant, ER−) were obtained from American Type Cell Culture (Manassas, Va.). The human ovarian carcinoma cell line (HEY) naturally resistant to cisplatin (CDDP) was kindly provided by Dr. Dubeau (University of Southern California Norris Cancer Center; Buick et al. (1985) Cancer Res. 45:3668-76 and Hamaguchi et al. (1993) Cancer Res. 53:5225-32). The results with CEM cells were previously described (Neamati et al. (1998) J. Med. Chem. 41:3202-9). Cells were maintained as monolayer cultures in RPMI 1640 supplemented with 10% fetal bovine serum (Gemini-Bioproducts, Woodland, Calif.) and 2 mmol/L L-glutamine at 37° C. in a humidified atmosphere of 5% CO2. To remove the adherent cells from the flask for passaging and counting, cells were washed with PBS without calcium or magnesium, incubated with a small volume of 0.25% trypsin-EDTA solution (Sigma-Aldrich, St. Louis, Mo.) for 5 to 10 minutes, and washed with culture medium and centrifuged. All experiments were done using cells in exponential cell growth.
(§1) Cytotoxicity was assessed by a 3-(4,5-dimethylthiazol-2-yl)-2,5-diphenyltetrazolium bromide assay as previously described (Carmichael et al. (1987) Cancer Res. 47:936-42). Briefly, cells were seeded in 96-well microtiter plates (PC3 and DU145 at 5,000 cells/well and LNCaP at 10,000 cells/well; breast and ovarian cells at 4,000 cells/well) and allowed to attach. Cells were subsequently treated with a continuous exposure to the corresponding drug for 72 hours. A 3-(4,5-dimethylthiazol-2-yl)-2,5-diphenyltetrazolium bromide solution (at a final concentration of 0.5 mg/mL) was added to each well and cells were incubated for 4 hours at 37° C. After removal of the medium, DMSO was added and the absorbance was read at 570 nm. All assays were done in triplicate. The IC50 was then determined for each drug from a plot of log(drug concentration) versus percentage of cell kill.

Series [1] relates to MDA-MB-435 breast cancer cells. The series can be described thus: MTT cytotoxicity assay, MDA-MB-435. The series is classed as cell-based, human. Particulars: for IC50: Homo sapiens, MTT, 72 h, read-out: IC50. The protocol: The sensitivity of a panel of seven human cancer cell lines to SC144 was assessed by MTT-assay. […] The sensitivity towards SC144 was time- and dose-dependent.
as §1
(§2) Cytotoxicity was assessed by a 3-(4,5-dimethylthiazol-2-yl)-2,5-diphenyltetrazolium bromide (MTT) assay as previously described.^9 Briefly, cells were seeded in 96-well microtiter plates and allowed to attach. Cells were subsequently treated with continuous exposure to the corresponding drug for 72 h. An MTT solution (at a final concentration of 0.5 mg/mL) was added to each well, and cells were incubated for 4 h at 37° C. After removal of the medium, DMSO was added and the absorbance was read at 570 nm. All assays were done in triplicate. The IC50 was then determined for each drug from a plot of log (drug concentration) versus percentage of cells killed.

In series [2] the test system is HCT 116 p53^+/+ colon cancer cells. The series can be described thus: MTT cytotoxicity assay, HCT 116 p53+/+. Particulars: Homo sapiens, 72 h. The series is classed as cell-based, human.
Excerpt: (§3) Human breast cancer cells MDA-MB-435 and colon cancer HT29, p53 mutant were purchased from the American Type Cell Culture (Manassas, Va.). The HCT116 P53^+/+ and HCT116 P53^−/− cells were kindly provided by Dr. Bert Vogelstein (Johns Hopkins Medical Institutions, Baltimore, Md.). Human prostate cancer cells, LNCaP, were kindly provided by Richard Cote (University of Southern California Keck School of Medicine). Cells were maintained as monolayer cultures in RPMI 1640 media supplemented with 10% fetal bovine serum (Gemini-Bioproducts, Woodland, Calif.) and 2 mmol/L L-glutamine at 37° C. in a humidified atmosphere of 5% CO2. To remove the adherent cells from the flask for passaging and counting, cells were washed with PBS without calcium or magnesium, incubated with a small volume of 0.25% trypsin-EDTA solution (Sigma-Aldrich, St. Louis, Mo.) for 5-10 min, and washed with culture medium and centrifuged. All experiments were performed using cells at exponential growth stage. Cells were routinely checked for mycoplasma contamination using a PCR-based assay (Stratagene, Cambridge, UK).
as §2

Series [3] deals with HCT 116 p53^−/− colon cancer cells. The series can be described thus: MTT cytotoxicity assay, HCT 116 p53-/-. The class given is cell-based, human. Particulars: Homo sapiens, 72 h.
Excerpt: as §3, §2

The next series concerns HT29 colon cancer cells. The series can be described thus: MTT cytotoxicity assay, HT 29. The class given is cell-based, human. Conditions: Homo sapiens, 72 h.
Excerpt: as §3, §2

Series [4] deals with human cancer cell lines (MDA-MB-435 and three colon cancer cells). The series can be described thus: MTT assay, panel of breast, colon and prostate cell lines (Example V). The class given is cell-based. Particulars: for IC50: Homo sapiens, MDA-MB-435, representative breast, colon, and prostate cell lines, MTT assay, read-out: IC50 values range. As to the method: All new compounds were tested in four human cancer cell lines, a breast cancer cell, MDA-MB-435, and three colon cancer cells.
as §2

For series [5], the system named is LNCaP prostate cancer cells. The series can be described thus: MTT cytotoxicity assay, LNCaP. The series is classed as cell-based. Conditions: Homo sapiens, hLNCaP, MTT, 72 h, read-out: IC50. As to the method:
as §1, §2

For the next series, the system named is cancer cells. Put plainly: Colony formation assay. The class given is cell-based. Conditions: doses ≧1 uM; hydrochloride. As to the method:
FIG. 32. […] (A) The IC50 values of SC161′ range from 0.3 to 4 uM in representative breast, colon, and prostate cell lines using MTT assay.
Colony formation assays were also performed to confirm the activity of these compounds as described.^10 Briefly, cells were plated in 6-well plates at a density of 100 cells/well and allowed to attach. The next day, serial dilutions of the corresponding compounds were added and allowed to incubate for 24 h. After exposure, cells were washed in PBS and cultured in free media until colonies were formed (8-10 days). Cells were subsequently washed, fixed with a 1% glutaraldehyde solution for 30 min, and stained with a solution of crystal violet (2%) for 30 min. After staining, cells were thoroughly washed with water. Colonies were imaged on the Versa-Doc Imaging System (Bio-Rad) and counted using the Quantity One quantitation software package (Bio-Rad). The data reported represent means of at least three independent experiments.

This is an account of results in patent US20110034472A1, “Novel Compounds for Treatment of Cancer and Disorders Associated With Angiogenesis Function” (UNIVERSITY OF SOUTHERN CALIFORNIA, priority 2004, published 2011).

As a reminder, the CC50 is the concentration giving 50% cytotoxicity. The low end stands for greater toxicity to the cells, the high end for lower toxicity to the cells. The IC50 is the point on the concentration scale where inhibition reaches its midpoint. As usually defined, the melting point is the temperature, or range, at which the solid turns liquid.

“Also recorded” adds a separate entry of the source. Counter-ions that a name gives are not always drawn. Bounds are passed on as bounds.

human CYP3A4, sequence (P08684 whole entry): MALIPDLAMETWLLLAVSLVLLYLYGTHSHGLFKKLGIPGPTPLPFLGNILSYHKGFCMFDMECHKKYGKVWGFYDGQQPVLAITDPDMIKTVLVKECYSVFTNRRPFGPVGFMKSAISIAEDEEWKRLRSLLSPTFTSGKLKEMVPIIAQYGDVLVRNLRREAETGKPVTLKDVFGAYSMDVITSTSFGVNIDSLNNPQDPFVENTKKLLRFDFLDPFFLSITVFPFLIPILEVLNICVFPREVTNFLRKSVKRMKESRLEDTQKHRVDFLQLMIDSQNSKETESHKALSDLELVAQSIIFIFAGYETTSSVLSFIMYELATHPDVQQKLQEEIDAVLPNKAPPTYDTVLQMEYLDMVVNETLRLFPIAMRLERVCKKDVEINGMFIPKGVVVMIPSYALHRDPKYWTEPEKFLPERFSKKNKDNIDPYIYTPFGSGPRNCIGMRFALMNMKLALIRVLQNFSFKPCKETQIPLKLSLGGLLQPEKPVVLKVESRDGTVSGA

Molecule `C=C/C=C(\C(=C)O)C(=O)N1N=C(C)/C(=C\c2cccc(O)c2)C1=O` [SC24] showed a CC50 in the series with MDA-MB-435 cells of 0.24 ± 0.03 µM. Further, the IC80 with MDA-MB-435 cells (Homo sapiens, MDA-MB-435, read-out: CC80) was 0.97 µM. In addition, on human CYP3A4, the “inhibition of CYP3A4 activity” value is “does not significantly inhibit CYP3A4 activity”. In the series on CEM or HEY cells, the concentration for half-maximal inhibition (IC50) is 0.13 µM.

`O=C(NNc1nc2ccccc2n2cccc12)C1CSCN1` (stereo not shown) [SC153, Thiazolidine-4-carboxylic acid N′-pyrrolo[1,2-a]quinoxalin-4-yl-hydrazide]: the melting point stood at 162 °C. In series [1], the “activity against the breast cancer line” value is “inactive” and the IC50 was greater than 20 µM. In addition, the IC50 in series [2] is 15 ± 3 µM. This molecule also showed a half-maximal inhibitory concentration (IC50) in series [3] of 10 ± 2 µM. The same molecule had an IC50 in the series on HT29 colon cancer cells of 14 ± 1 µM. Moreover, in series [4], the “activity against colon cancer lines” value was “moderately active”.

`O=C(NNc1nc2ccccc2n2cccc12)c1ccc2cc[nH]c2c1` [SC157, 1H-Indole-6-carboxylic acid N′-pyrrolo[1,2-a]quinoxalin-4-yl-hydrazide]: the melting point worked out at 198.5 °C. Moreover, the IC50 in series [1] was greater than 20 µM. In [2], this molecule returned an IC50 greater than 20 µM. This molecule yielded a concentration for half-maximal inhibition (IC50) in series [3] greater than 20 µM. Moreover, in the series on HT29 colon cancer cells, the IC50 is greater than 20 µM.

As to `O=C(NNc1nc2ccccc2n2cccc12)c1c[nH]c2ccccc12` [SC158, 1H-Indole-3-carboxylic acid N′-pyrrolo[1,2-a]quinoxalin-4-yl-hydrazide], the melting point was found to be 162.5 °C. Moreover, the IC50 in series [1] was greater than 20 µM. Further, the IC50 in series [2] is greater than 20 µM. The molecule further had an IC50 in [3] greater than 20 µM. Besides, the IC50 in the series with HT29 colon cancer cells is greater than 20 µM.

In the case of `NC(CC(=O)NNc1nc2ccccc2n2cccc12)c1ccccc1Cl` (stereo not shown) [SC160, 3-Amino-3-(2-chloro-phenyl)-propionic acid N′-pyrrolo[1,2-a]quinoxalin-4-yl-hydrazide], the IC50 is greater than 20 µM in [1]; greater than 20 µM in series [5]; greater than 20 µM in series [2]; greater than 20 µM in series [3]; 17 µM in the series on HT29 colon cancer cells.

With `O=C(NNc1nc2cc(F)ccc2n2cccc12)c1ccccn1` [SC160′, N′-(7-Fluoropyrrolo[1,2-a]quinoxalin-4-yl)pyridine-2-carbohydrazide hydrochloride], the “activity in all cell lines” value in series [4] is “inactive”.

On to `NC(CC(=O)NNc1nc2ccccc2n2cccc12)c1ccc(Cl)cc1` (stereo not shown) [SC161, 3-Amino-3-(4-chloro-phenyl)-propionic acid N′-pyrrolo[1,2-a]quinoxalin-4-yl-hydrazide], for which the IC50 in series [1] was found to be 3 ± 2 µM; in series [5], 0.4 µM; in series [2], 0.4 ± 0.01 µM; in series [3], 0.3 ± 0.07 µM; in the series with HT29 colon cancer cells it was 0.3 ± 0.06 µM.

Turning to `O=C(NNc1nc2cccc(F)c2n2cccc12)c1cnccn1` [SC161′, N′-(9-Fluoropyrrolo[1,2-a]quinoxalin-4-yl)pyrazine-2-carbohydrazide hydrochloride], in series [4], the “activity in all cell lines” value was “highly active” and the IC50 lay within 0.3 to 4 µM. Further, the colony formation result with cancer cells is “completely blocks colony formation; also recorded: completely abolished cell growth”.

On to `Cl.O=C(NNc1nc2cc(F)ccc2n2cccc12)c1cccnc1` [SC162′, N′-(7-Fluoropyrrolo[1,2-a]quinoxalin-4-yl)nicotinyl hydrazide hydrochloride], for which, in series [4], the “activity in all cell lines” value is “inactive”.

For the molecule `O=C(NNc1nc2cc(F)ccc2n2cccc12)c1cnc2ccccc2n1` [SC166′, N′-(7-Fluoropyrrolo[1,2-a]quinoxalin-4-yl)quinoxaline-2-carbohydrazide hydrochloride], the IC50 in series [4] was in the range of 8 to 15 µM.
